Test system: 60 cancer cell lines (NCI 60 cancer cell line series)
Test: NCI-DTP in vitro cancer screen, sulforhodamine B (SRB) growth inhibition, 48 hour exposure
Assay type: cell-based, human
Parameters: key to sensitivity class Ovarian OVCAR-8 CL6005 / sensitivity class Ovarian SK-OV-3 CL6011 / sensitivity class Prostate DU-145 CL11003 / sensitivity class NSCLC NCI-H522 CL1003 / sensitivity class Ovarian IGROV1 CL6010 / sensitivity class Ovarian OVCAR-4 CL6002 / sensitivity class Prostate PC-3(I) CL11001 / sensitivity class Renal A498 CL9013 / sensitivity class Renal SN12C CL9008: sensitivity class: 1 = Low, 2 = Medium, 3 = High
Procedure, shortened: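 Sixty NCI-DTP cancer lines plated at line-specific densities, dosed on day 1 in duplicate with 5 concentrations at ten-fold intervals. After 48 h exposure, cell mass read by SRB staining; GI50 (50% growth inhibition) taken from dose-response curves and expressed as -log GI50.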

For `O=C1c2c(O)ccc(O)c2C(=O)c2c(NCCNCCO)ccc(NCCNCCO)c21` [Mitoxantrone], the “classification of cell line as Low(1), Medium(2) or High(3) sensitivity to compound” value (from here on “classification of cell line”) (Breast BT-549 (CL5013)) was 2, the “classification of cell line” value (Breast HS-578T CL5006) was 2 and the “classification of cell line” value (Breast MCF7(I) (CL5001)) was 3. For the same compound, the “classification of cell line” value (Breast MCF7/ADRr (CL5002)) was 1, the “classification of cell line” value (Breast MDA-MB-231 CL5005) was 1 and the “classification of cell line” value (Breast MDA-MB-435 (CL5011)) was 1. The “classification of cell line” value (Breast MDA-N CL5012) was 1, the “classification of cell line” value (Breast T-47D (CL5014)) was 2 and the “classification of cell line” value (CNS SF-268 CL12014) was 2. The “classification of cell line” value (CNS SF-295 CL12015) was 2, the “classification of cell line” value (CNS SF-539 CL12016) was 3 and the “classification of cell line” value (CNS SNB-19 (CL12002)) was 3. The “classification of cell line” value (CNS SNB-75(I) CL12005) was 3, the “classification of cell line” value (CNS U251(I) CL12009) was 3 and the “classification of cell line” value (Colon COLO-250 CL4010) was 2. The “classification of cell line” value (Colon HCC-2998 (CL4002)) was 1, the “classification of cell line” value (Colon HCT-15 CL4015) was 1 and the “classification of cell line” value (Colon HCT-116 (CL4003)) was 2. For the same compound, the “classification of cell line” value (Colon HT29(I) CL4001) was 1, the “classification of cell line” value (Colon KM12 (CL4017)) was 1 and the “classification of cell line” value (Colon SW-620 (CL4009)) was 2. For the same compound, the “classification of cell line” value (Leukemia CCRF-CEM(I) (CL7003)) was 3, the “classification of cell line” value (Leukemia HL-60(I) (CL7008)) was 3 and the “classification of cell line” value (Leukemia K562(I) CL7005) was 2. For the same compound, the “classification of cell line” value (Leukemia MOLT-4 (CL7006)) was 3, the “classification of cell line” value (Leukemia RPMI-8226(I) (CL7010)) was 2 and the “classification of cell line” value (Leukemia SR CL7019) was 3. For the same compound, the “classification of cell line” value (Melanoma LOX IMVI CL10001) was 2, the “classification of cell line” value (Melanoma M14 (CL10014)) was 2 and the “classification of cell line” value (Melanoma MALME-3M CL10002) was 2. The “classification of cell line” value (Melanoma SK-MEL-2 (CL10005)) was 1, the “classification of cell line” value (Melanoma SK-MEL-5 (CL10007)) was 2 and the “classification of cell line” value (Melanoma SK-MEL-28 (CL10008)) was 1. The “classification of cell line” value (Melanoma UACC-62 (CL10020)) was 2, the “classification of cell line” value (Melanoma UACC-257 (CL10021)) was 1 and the “classification of cell line” value (NSCLC A549/ATCC (CL1004)) was 3. The “classification of cell line” value (NSCLC EKVX (CL1008)) was 1, the “classification of cell line” value (NSCLC HOP-62 (CL1026)) was 3 and the “classification of cell line” value (NSCLC HOP-92 (CL1029)) was 3. For the same compound, the “classification of cell line” value (NSCLC NCI-H226 CL1013) was 3, the “sensitivity class NSCLC NCI-H23(I) CL1001” value (cell line NSCLC NCI-H23(I), CL1001) was 2 and the “sensitivity class NSCLC NCI-H332M CL1017” value (cell line NSCLC NCI-H332M, CL1017) was 1. The “sensitivity class NSCLC NCI-H460 CL1021” value (cell line NSCLC NCI-H460, CL1021) was 3, the “sensitivity class NSCLC NCI-H522 CL1003” value (cell line NSCLC NCI-H522, CL1003) was 2 and the “sensitivity class Ovarian IGROV1 CL6010” value (cell line Ovarian IGROV1, CL6010) was 2. For the same compound, the “sensitivity class Ovarian OVCAR-3 CL6001” value (cell line Ovarian OVCAR-3, CL6001) was 1, the “sensitivity class Ovarian OVCAR-4 CL6002” value (cell line Ovarian OVCAR-4, CL6002) was 1 and the “sensitivity class Ovarian OVCAR-5 CL6003” value (cell line Ovarian OVCAR-5, CL6003) was 1. For the same compound, the “sensitivity class Ovarian OVCAR-8 CL6005” value (cell line Ovarian OVCAR-8, CL6005) was 2, the “sensitivity class Ovarian SK-OV-3 CL6011” value (cell line Ovarian SK-OV-3, CL6011) was 2 and the “sensitivity class Prostate DU-145 CL11003” value (cell line Prostate DU-145, CL11003) was 2. For the same compound, the “sensitivity class Prostate PC-3(I) CL11001” value (cell line Prostate PC-3(I), CL11001) was 2, the “sensitivity class Renal 786-O CL9018” value (cell line Renal 786-O, CL9018) was 2 and the “sensitivity class Renal A498 CL9013” value (cell line Renal A498, CL9013) was 2. For the same compound, the “sensitivity class Renal ACHN CL9023” value (cell line Renal ACHN, CL9023) was 3, the “sensitivity class Renal CAKI-1 CL9015” value (cell line Renal CAKI-1, CL9015) was 3 and the “sensitivity class Renal RXF-393 CL9016” value (cell line Renal RXF-393, CL9016) was 2. The “sensitivity class Renal SN12C CL9008” value (cell line Renal SN12C, CL9008) was 3, the “sensitivity class Renal TK10 CL9024” value (cell line Renal TK10, CL9024) was 1 and the “sensitivity class Renal UO-31 CL9004” value (cell line Renal UO-31, CL9004) was 1.
